One experiment addresses T1, Or85d (pb3B) (Drosophila melanogaster, UniProt Q9VHQ2).
T1 construct: native receptor in pb3B maxillary palp neuron of wild-type flies; with Odorant receptor coreceptor
T1 sequence (Q9VHQ2 1-412): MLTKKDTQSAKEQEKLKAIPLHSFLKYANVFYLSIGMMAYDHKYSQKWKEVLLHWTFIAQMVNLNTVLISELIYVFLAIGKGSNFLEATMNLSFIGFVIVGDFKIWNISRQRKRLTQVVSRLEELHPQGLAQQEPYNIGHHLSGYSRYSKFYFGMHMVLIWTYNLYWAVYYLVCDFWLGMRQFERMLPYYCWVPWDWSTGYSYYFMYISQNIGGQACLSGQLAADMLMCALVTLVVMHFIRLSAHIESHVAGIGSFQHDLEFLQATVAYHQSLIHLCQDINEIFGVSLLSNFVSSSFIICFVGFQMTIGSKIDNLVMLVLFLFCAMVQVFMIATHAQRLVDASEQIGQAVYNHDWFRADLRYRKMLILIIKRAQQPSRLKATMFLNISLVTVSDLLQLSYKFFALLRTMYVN
T1 sequence (Q9VNB5 1-486 partner): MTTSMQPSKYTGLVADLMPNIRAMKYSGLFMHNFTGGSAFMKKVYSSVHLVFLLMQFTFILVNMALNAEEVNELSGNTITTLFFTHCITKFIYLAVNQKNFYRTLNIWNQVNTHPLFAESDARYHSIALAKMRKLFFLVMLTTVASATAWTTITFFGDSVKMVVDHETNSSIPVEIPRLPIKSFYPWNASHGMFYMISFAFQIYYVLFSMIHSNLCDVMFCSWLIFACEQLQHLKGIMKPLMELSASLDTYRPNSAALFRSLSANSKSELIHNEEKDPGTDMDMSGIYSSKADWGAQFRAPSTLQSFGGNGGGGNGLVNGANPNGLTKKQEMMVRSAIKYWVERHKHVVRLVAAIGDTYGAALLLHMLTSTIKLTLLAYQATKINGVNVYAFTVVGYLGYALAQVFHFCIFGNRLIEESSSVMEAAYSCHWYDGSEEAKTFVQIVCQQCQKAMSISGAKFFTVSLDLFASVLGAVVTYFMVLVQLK
As to the kind of experiment: single sensillum recording (SSR), dose-response. The conditions noted are these: native pb3B neuron, agonist; odor dilution. The source says:
single sensillum recording (SSR), dose-response on Or85d (pb3B)

A further experiment has as its target T2, Or71a (pb1B) (Drosophila melanogaster, UniProt Q9VUK5).
T2 construct: native receptor in pb1B maxillary palp neuron of wild-type flies; with Odorant receptor coreceptor
T2 sequence (Q9VUK5 1-378): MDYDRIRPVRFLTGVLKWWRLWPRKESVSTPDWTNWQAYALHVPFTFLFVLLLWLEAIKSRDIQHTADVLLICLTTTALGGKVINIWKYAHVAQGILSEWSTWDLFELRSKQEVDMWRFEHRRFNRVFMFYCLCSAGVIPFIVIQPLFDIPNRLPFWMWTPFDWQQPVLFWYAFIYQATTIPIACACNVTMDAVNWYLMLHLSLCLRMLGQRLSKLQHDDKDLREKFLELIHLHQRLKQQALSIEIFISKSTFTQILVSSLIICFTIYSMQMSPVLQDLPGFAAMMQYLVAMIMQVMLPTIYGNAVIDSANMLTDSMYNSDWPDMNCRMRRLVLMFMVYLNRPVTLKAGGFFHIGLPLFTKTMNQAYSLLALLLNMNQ
T2 sequence (Q9VNB5 1-486 partner): T1 sequence (Q9VNB5 1-486 partner)
As to the kind of experiment: single sensillum recording (SSR), dose-response. Particulars: native pb1B neuron, agonist; odor dilution. From the text:
single sensillum recording (SSR), dose-response on Or71a (pb1B)

The target in a further experiment is T3, Or42a (pb1A) (Drosophila melanogaster, UniProt Q9V9I2).
T3 construct: native receptor in pb1A maxillary palp neuron of wild-type flies; neuron-receptor match not tested by expression; with Odorant receptor coreceptor
T3 sequence (Q9V9I2 1-406): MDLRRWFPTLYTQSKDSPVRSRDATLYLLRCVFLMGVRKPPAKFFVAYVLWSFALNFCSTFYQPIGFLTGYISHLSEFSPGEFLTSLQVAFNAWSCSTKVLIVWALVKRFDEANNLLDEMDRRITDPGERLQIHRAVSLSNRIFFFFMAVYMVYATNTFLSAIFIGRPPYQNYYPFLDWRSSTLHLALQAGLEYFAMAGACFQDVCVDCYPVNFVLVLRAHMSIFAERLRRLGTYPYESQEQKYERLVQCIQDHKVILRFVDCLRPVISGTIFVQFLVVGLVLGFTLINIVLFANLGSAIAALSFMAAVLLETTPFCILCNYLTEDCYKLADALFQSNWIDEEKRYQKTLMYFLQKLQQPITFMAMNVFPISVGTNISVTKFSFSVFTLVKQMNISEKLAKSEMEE
T3 sequence (Q9VNB5 1-486 partner): T1 sequence (Q9VNB5 1-486 partner)
Kind of experiment: single sensillum recording (SSR), dose-response. The conditions noted are these: native pb1A neuron, agonist; odor dilution. From the text:
single sensillum recording (SSR), dose-response on Or42a (pb1A)

A further experiment has as its target T4, Or59c (pb3A) (Drosophila melanogaster, UniProt Q9W1P7).
T4 construct: native receptor in pb3A maxillary palp neuron of wild-type flies; with Odorant receptor coreceptor
T4 sequence (Q9W1P7 1-411): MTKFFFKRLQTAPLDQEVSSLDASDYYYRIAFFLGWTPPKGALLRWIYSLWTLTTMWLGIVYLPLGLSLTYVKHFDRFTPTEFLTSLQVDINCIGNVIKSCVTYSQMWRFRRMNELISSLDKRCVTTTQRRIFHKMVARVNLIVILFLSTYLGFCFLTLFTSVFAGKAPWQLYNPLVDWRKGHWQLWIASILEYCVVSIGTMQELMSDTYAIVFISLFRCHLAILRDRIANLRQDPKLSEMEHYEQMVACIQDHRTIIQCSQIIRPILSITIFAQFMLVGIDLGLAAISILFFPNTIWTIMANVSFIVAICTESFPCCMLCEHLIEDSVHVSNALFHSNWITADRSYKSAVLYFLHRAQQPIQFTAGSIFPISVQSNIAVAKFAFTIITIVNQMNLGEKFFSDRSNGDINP
T4 sequence (Q9VNB5 1-486 partner): T1 sequence (Q9VNB5 1-486 partner)
Kind of experiment: single sensillum recording (SSR), dose-response. Particulars: native pb3A neuron, agonist; odor dilution. The source says: single sensillum recording (SSR), dose-response on Or59c (pb3A)

The next experiment concerns the target T5, Or85a (Drosophila melanogaster, UniProt Q9VHS4).
T5 construct: native receptor in antennal ab2B neuron of wild-type flies; with Odorant receptor coreceptor
T5 sequence (Q9VHS4 1-397): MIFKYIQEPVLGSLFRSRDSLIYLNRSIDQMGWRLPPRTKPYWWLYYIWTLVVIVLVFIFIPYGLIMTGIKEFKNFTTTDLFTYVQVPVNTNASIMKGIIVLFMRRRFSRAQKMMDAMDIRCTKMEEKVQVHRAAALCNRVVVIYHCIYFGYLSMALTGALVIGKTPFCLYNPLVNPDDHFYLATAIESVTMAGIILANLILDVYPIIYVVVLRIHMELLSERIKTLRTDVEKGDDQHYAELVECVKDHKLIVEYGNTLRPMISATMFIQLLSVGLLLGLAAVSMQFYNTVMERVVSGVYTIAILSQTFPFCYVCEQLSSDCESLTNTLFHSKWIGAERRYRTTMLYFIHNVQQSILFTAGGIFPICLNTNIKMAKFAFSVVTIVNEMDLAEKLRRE
T5 sequence (Q9VNB5 1-486 partner): T1 sequence (Q9VNB5 1-486 partner)
Kind of experiment: SSR and GC-SSR, dose-response. The conditions noted are these: native antennal ab2B neuron, agonist; odor dilution.

The target of another experiment is T6, Or67a (Drosophila melanogaster, UniProt Q9VT08).
T6 construct: native receptor in antennal neuron (ab10) of wild-type flies; with Odorant receptor coreceptor
T6 sequence (Q9VT08 1-407): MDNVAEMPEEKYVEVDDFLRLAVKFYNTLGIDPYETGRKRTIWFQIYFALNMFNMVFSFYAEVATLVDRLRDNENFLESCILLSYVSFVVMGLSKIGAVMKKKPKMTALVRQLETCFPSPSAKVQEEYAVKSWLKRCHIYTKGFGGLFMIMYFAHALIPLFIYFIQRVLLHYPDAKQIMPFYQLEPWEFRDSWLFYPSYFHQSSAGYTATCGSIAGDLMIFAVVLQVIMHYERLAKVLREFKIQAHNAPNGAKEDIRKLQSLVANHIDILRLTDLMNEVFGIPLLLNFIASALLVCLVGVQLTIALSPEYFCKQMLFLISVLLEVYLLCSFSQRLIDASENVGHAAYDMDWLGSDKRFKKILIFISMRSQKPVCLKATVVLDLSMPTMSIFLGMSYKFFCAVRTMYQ
T6 sequence (Q9VNB5 1-486 partner): T1 sequence (Q9VNB5 1-486 partner)
As to the kind of experiment: SSR and GC-SSR, dose-response. Particulars: native antennal neuron, agonist; odor dilution.

The target of the next experiment is T7, Or46a (pb2B) (Drosophila melanogaster, UniProt P81919).
T7 construct: native receptor in pb2B maxillary palp neuron of wild-type flies; with Odorant receptor coreceptor
T7 sequence (P81919 1-381): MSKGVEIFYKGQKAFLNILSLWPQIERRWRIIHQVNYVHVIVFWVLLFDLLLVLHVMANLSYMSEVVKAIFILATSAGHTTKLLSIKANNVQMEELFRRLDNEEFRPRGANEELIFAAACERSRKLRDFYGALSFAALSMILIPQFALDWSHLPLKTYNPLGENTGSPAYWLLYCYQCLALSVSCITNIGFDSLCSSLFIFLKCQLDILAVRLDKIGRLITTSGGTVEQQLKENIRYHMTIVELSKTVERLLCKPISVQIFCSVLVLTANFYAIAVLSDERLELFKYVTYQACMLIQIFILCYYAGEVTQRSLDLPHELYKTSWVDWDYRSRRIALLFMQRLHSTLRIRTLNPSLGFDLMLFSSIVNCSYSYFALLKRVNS
T7 sequence (Q9VNB5 1-486 partner): T1 sequence (Q9VNB5 1-486 partner)
As to the kind of experiment: single sensillum recording (SSR), dose-response. The conditions noted are these: native pb2B neuron, agonist; odor dilution. The source says: single sensillum recording (SSR), dose-response on Or46a (pb2B)

Turning to `CC(=O)OCCc1ccccc1` [2-Phenethyl acetate], the Detection threshold at Or85d (pb3B) is reported as 10^-7 dilution. `CCc1ccc(O)c(OC)c1` [4-ethylguaiacol]: at Or71a (pb1B), the Detection threshold is listed as 10^-7 dilution.

As for `C=CCC(=O)CC` [5-hexen-3-one], the Detection threshold on Or42a (pb1A) is given as 10^-7 dilution. On to `CCCCOC(=O)CC(C)O` (stereo not drawn) [Butyl 3-hydroxy butyrate], for which the Detection threshold at Or59c (pb3A) is given as 10^-4 dilution; at Or85a, 10^-5 dilution. As for `C=CCc1ccc(OC)c(OC)c1` [Methyleugenol], the Detection threshold on Or71a (pb1B) was 10^-7 dilution. With `CCC(=O)OCCc1ccccc1` [Phenethyl propionate], the Detection threshold is given as 10^-5 dilution on Or67a and 10^-7 dilution on Or85d (pb3B). For `Oc1ccccc1` [Phenol], on Or46a (pb2B), the Detection threshold is 10^-7 dilution.
